# Where two headings read alike, the source gives them in different places. Marks after values point to notes of the source that are not given here.
# Assay: Chemical stability of liquid composition on storage
# Type: physicochemical
# Protocol: The chemical stability of a disclosed liquid composition stored at 6° C. or 22° C. was evaluated at 2 months and three months. The microbial stability and shelf life was also evaluated. A liquid composition having a pH of about 3.7 was subjected to high pressure processing at 6000 bar for two cycles of 5 minutes.
# [1] = stored at 6° C. or 22° C., adjusted for slightly lower oil volume in 3 months preparation (55 ml vs 60 ml)
Molecule,amount in liquid composition at 2 Months (chemical stability) (stored at 6° C. or 22° C.),amount in liquid composition at 3 Months (chemical stability) (stored at 6° C. or 22° C.),amount in liquid composition at 2 Months (chemical stability),amount in liquid composition at 3 Months (chemical stability),amount in liquid composition at 3 Months (chemical stability) [1]
NCC(=O)O [Glycine],3319 mg/60 mL,3303 mg/60 mL,–,–,–
N[C@@H](Cc1c[nH]c2ccccc12)C(=O)O [L-Tryptophan],420 mg/60 mL,426 mg/60 mL,–,–,–
[Mg+2] [Magnesium],–,–,15 mg/60 mL,27.8 mg/60 mL,–
[Na] [Sodium],1.23 mg/60 mL,0.6 mg/60 mL,–,–,–
O=C1O[C@H]([C@@H](O)CO)C(O)=C1O [Vitamin C],326 mg/60 mL,245 mg/60 mL,–,–,–
[Zn] [Zinc],6 mg/60 mL,5.7 mg/60 mL,–,–,–
CC/C=C\C/C=C\C/C=C\CCCCCCCC(=O)O [alpha linoleic acid],–,–,1026 mg/60 mL,1025* mg/60 mL,–
CC/C=C\C/C=C\C/C=C\C/C=C\C/C=C\CCCC(=O)O [eicosapentaenoic acid],319 mg/60 mL,–,–,–,297* mg/60 mL
Medium chain triglycerides,–,–,2209 mg/60 mL,2407* mg/60 mL,–
Vitamin D,25 mcg/60 mL,–,–,–,26* mcg/60 mL
Vitamin E,–,2.2 mg/60 mL,–,–,–
docosapenataenoic acid,632 mg/60 mL,–,–,–,587* mg/60 mL

# From patent publication US20240173295A1, “A STABLE, EMULSION-FORMING LIQUID COMPOSITION COMPRISING AMINO ACIDS” (Brain Luxury Inc., priority 2021, published 2024)
